Patent US20240109881A1, “Heteroaryl Compounds as Ligand Directed Degraders of IRAK4” (Bristol-Myers Squibb Company, priority 2022, published 2024)

Biological target: T1, IRAK4 (Homo sapiens, UniProt Q9NWZ3)
T1 construct: endogenous in cells; host or cells: THP-1 cells
T1 sequence (Q9NWZ3 1-460): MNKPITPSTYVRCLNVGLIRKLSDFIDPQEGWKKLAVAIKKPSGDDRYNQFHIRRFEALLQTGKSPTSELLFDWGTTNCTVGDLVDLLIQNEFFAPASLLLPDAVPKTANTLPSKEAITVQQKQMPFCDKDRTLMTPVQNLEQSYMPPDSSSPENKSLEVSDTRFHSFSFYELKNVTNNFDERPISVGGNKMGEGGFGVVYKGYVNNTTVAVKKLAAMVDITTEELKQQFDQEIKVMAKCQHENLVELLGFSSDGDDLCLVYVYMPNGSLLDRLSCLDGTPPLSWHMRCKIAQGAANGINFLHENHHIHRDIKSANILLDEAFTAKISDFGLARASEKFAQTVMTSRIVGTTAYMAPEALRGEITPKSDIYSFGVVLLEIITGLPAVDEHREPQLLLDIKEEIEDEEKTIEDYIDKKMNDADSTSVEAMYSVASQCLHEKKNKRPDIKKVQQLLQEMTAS
Assay: LVL THP1 HTRF (THP1 Homogeneous Time Resolved Fluorescence)
Format: cell-based
Settings: THP1 cells, 18 h incubation with compound; for DC50: read-out: LVL THP1 HTRF EC50
In short: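 THP-1 cells in phenol red-free RPMI with 10% FBS were dosed with compound (20 nL in DMSO) for 18 h at 37° C. After 2 h lysis, IRAK4 was detected with anti-IRAK4-d2/anti-IRAK4-K HTRF antibodies for 18 h at room temperature and read at 665/615 nm; a parallel CTG plate was run.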

| Structure (SMILES) | DC50 [µM] | LVL THP1 HTRF YMIN [%] |
| --- | --- | --- |
| C[C@]1(c2ccc(N3CCN(CC[C@H]4CC[C@H](c5cn(-c6cnc(-n7ncc8cc(C#N)cnc87)cc6NC6(C#N)CC6)nn5)CC4)CC3)cc2)CCC(=O)NC1=O [P-234] | 0.013 |  |
| C[C@H](C#N)Nc1cc(-n2ncc3cc(C#N)cnc32)ncc1-n1cc(C2CCC(CCN3[C@@H](C)CN(c4ccc([C@@]5(C)CCC(=O)NC5=O)cc4)C[C@@H]3C)CC2)nn1 (some centres unmarked) [P-238] | 0.025 | 1.1 |
| C[C@H](C#N)Nc1cc(-n2ncc3cc(C#N)cnc32)ncc1-n1cc(C2CCC(CCN3CCN(c4ccc([C@@]5(C)CCC(=O)NC5=O)cc4)[C@H](C)C3)CC2)nn1 (some centres unmarked) [P-239] | 0.165 | 8.6 |
| C[C@@H]1CN(CCC2CCC(c3cn(-c4cnc(-n5ncc6cc(C#N)cnc65)cc4NC4(C#N)CC4)nn3)CC2)[C@@H](C)CN1c1ccc([C@@]2(C)CCC(=O)NC2=O)cc1 (some centres unmarked) [P-240] | 0.297 | 14.5 |
| C[C@H](C#N)Nc1cc(-n2ncc3cc(C#N)cnc32)ncc1-n1cc(C2CCC(CCN3CCN(c4ccc([C@@]5(C)CCC(=O)NC5=O)cc4)[C@@H](C)C3)CC2)nn1 (some centres unmarked) [P-241] | 0.039 | 3.5 |
| C[C@H](C#N)Nc1cc(-n2ncc3cc(C#N)cnc32)ncc1-n1cc(C2CCC(CCN3C[C@H](C)N(c4ccc([C@@]5(C)CCC(=O)NC5=O)cc4)C[C@H]3C)CC2)nn1 (some centres unmarked) [P-244] | 0.056 | 3.5 |
| C[C@H](C#N)Nc1cc(-n2ncc3ccc(N4C[C@H]5C[C@@H]4CO5)nc32)ncc1-n1cc([C@H]2CC[C@H](CCN3CCN(c4ccc([C@@]5(C)CCC(=O)NC5=O)cc4)CC3)CC2)nn1 [P-247] | 0.191 | 13.4 |
| C[C@H](C#N)Nc1cc(-n2ncc3cc(C#N)c(N)nc32)ncc1C(=O)N[C@H]1CC[C@H](CCN2CCN(c3ccc([C@@]4(C)CCC(=O)NC4=O)cc3)CC2)CC1 [P-250] | 0.0012 | 2.4 |
| C[C@H](C#N)Nc1cc(-n2ncc3cc(C#N)cnc32)ncc1C(=O)N[C@H]1CC[C@H](CCN2CC[C@@H](c3ccc([C@@]4(C)CCC(=O)NC4=O)cc3)C[C@@H]2C)CC1 [P-271] | 0.0188 | 9.9 |
| CC1CN(CC[C@H]2CC[C@H](NC(=O)c3cnc(-n4ncc5cc(C#N)cnc54)cc3N[C@H](C)C#N)CC2)CCC1c1ccc([C@@]2(C)CCC(=O)NC2=O)cc1 (some centres unmarked) [P-272] | 0.0103 | 10.2 |
| CC1CN(CC[C@H]2CC[C@H](c3cn(-c4cnc(-n5ncc6cc(C#N)cnc65)cc4N[C@H](C)C#N)nn3)CC2)CCC1c1ccc([C@@]2(C)CCC(=O)NC2=O)cc1 (some centres unmarked) [P-285] | 0.0185 | 10.4 |
| C[C@H](C#N)Nc1cc(Nc2ccc(C#N)cn2)ncc1-n1cc([C@H]2CC[C@H](CCN3CCN(c4ccc([C@@]5(C)CCC(=O)NC5=O)cc4)CC3)CC2)nn1 [P-298] | 0.0827 | 3.2 |
| C[C@H](C#N)Nc1cc(Nc2ncc(C#N)cn2)ncc1-n1cc([C@H]2CC[C@H](CCN3CCN(c4ccc([C@@]5(C)CCC(=O)NC5=O)cc4)CC3)CC2)nn1 [P-300] | 0.243 | 11.7 |
| C[C@@H]1CN(CC[C@H]2CC[C@H](c3cn(-c4cnc(-n5ncc6cc(C#N)cnc65)cc4NC4(C#N)CC4)nn3)CC2)CCN1c1ccc([C@@]2(C)CCC(=O)NC2=O)cc1 [P-301] | 0.103 | 17.8 |
| C[C@H](C#N)Nc1cc(-n2ncc3cc(C#N)cnc32)ncc1-n1cc([C@H]2CC[C@H](CCN3CCC(c4ccc([C@@]5(C)CCC(=O)NC5=O)cc4)C(F)C3)CC2)nn1 (some centres unmarked) [P-311] | 0.003 | −1.0 |
| C[C@H](C#N)Nc1cc(-c2ccc3cc(C#N)cnn23)ncc1-n1cc([C@H]2CC[C@H](CCN3CCN(c4ccc(C5CCC(=O)NC5=O)cc4)CC3)CC2)nn1 (some centres unmarked) [P-315] | 0.0022 | 1.4 |

Further compounds by falling DC50, results first:

| DC50 [µM] | LVL THP1 HTRF YMIN [%] | Structure (SMILES) |
| --- | --- | --- |
| 0.269 | 23.3 | C[C@H](C#N)Nc1cc(-n2ncc3cc(C#N)cnc32)ncc1-n1cc(C2CCC(CCN3C[C@@H](C)N(c4ccc([C@@]5(C)CCC(=O)NC5=O)cc4)C[C@@H]3C)CC2)nn1 (some centres unmarked) [P-236] |
| 0.159 | 3.9 | C[C@H](C#N)Nc1cc(-n2ncc3cc(C#N)cnc32)ncc1-n1cc(C2CCC(CCN3[C@H](C)CN(c4ccc([C@@]5(C)CCC(=O)NC5=O)cc4)C[C@H]3C)CC2)nn1 (some centres unmarked) [P-243] |
| 0.0493 | 6.5 | C[C@H](C#N)Nc1cc(Nc2ncc(C#N)cc2Cl)ncc1-n1cc([C@H]2CC[C@H](CCN3CCN(c4ccc([C@@]5(C)CCC(=O)NC5=O)cc4)CC3)CC2)nn1 [P-297] |
| 0.0364 | 3.5 | C[C@H](C#N)Nc1cc(Nc2ncc(C#N)cc2F)ncc1-n1cc([C@H]2CC[C@H](CCN3CCN(c4ccc([C@@]5(C)CCC(=O)NC5=O)cc4)CC3)CC2)nn1 [P-299] |
| 0.023 | 2.5 | C[C@H](C#N)Nc1cc(-n2ncc3cc(C#N)c(N)nc32)ncc1-n1cc(C2CCC(CCN3[C@H](C)CN(c4ccc([C@@]5(C)CCC(=O)NC5=O)cc4)C[C@H]3C)CC2)nn1 (some centres unmarked) [P-242] |
| 0.0146 | 2.9 | C[C@H](C#N)Nc1cc(-n2ncc3cc(C#N)cnc32)ncc1C(=O)N[C@H]1CC[C@H](CCN2CCN(c3ccc([C@@]4(C)CCC(=O)NC4=O)cc3)[C@@H](C)C2)CC1 [P-275] |
| 0.012 | 2.6 | C[C@H](C#N)Nc1cc(-n2ncc3cc(C#N)c(N)nc32)ncc1-n1cc(C2CCC(CCN3CCN(c4ccc([C@@]5(C)CCC(=O)NC5=O)cc4)[C@@H](C)C3)CC2)nn1 (some centres unmarked) [P-245] |
| 0.0118 | 6.3 | C[C@H](C#N)Nc1cc(-n2ncc3cc(C#N)c(N4C[C@H]5C[C@@H]4CO5)nc32)ncc1-n1cc([C@H]2CC[C@H](CCN3CCN(c4ccc([C@@]5(C)CCC(=O)NC5=O)cc4)CC3)CC2)nn1 [P-269] |
| 0.0098 | 1.9 | C[C@H](C#N)Nc1cc(-n2ncc3cc(C#N)c(N)nc32)ncc1-n1cc([C@H]2CC[C@H](CCN3[C@@H](C)CN(c4ccc([C@@]5(C)CCC(=O)NC5=O)cc4)C[C@@H]3C)CC2)nn1 [P-251] |
| 0.0068 | 4.1 | C[C@]1(c2ccc(N3CCN(CC[C@H]4CC[C@H](c5cn(-c6cnc(-n7ncc8cc(C#N)c(N)nc87)cc6NC6(C#N)CC6)nn5)CC4)CC3)cc2)CCC(=O)NC1=O [P-246] |
| 0.0065 | 0.2 | C[C@H](C#N)Nc1cc(-n2ncc3cc(C#N)cnc32)ncc1C(=O)N[C@H]1CC[C@H](CCN2CC[C@H](c3ccc([C@@]4(C)CCC(=O)NC4=O)cc3)C[C@H]2C)CC1 [P-270] |
| 0.0058 | 3.5 | C[C@H](C#N)Nc1cc(-n2ncc3cc(C#N)cnc32)ncc1C(=O)N[C@H]1CC[C@H](CCN2CCC(F)(c3ccc([C@@]4(C)CCC(=O)NC4=O)cc3)CC2)CC1 [P-274] |
| 0.0049 | 5.6 | C[C@H](C#N)Nc1cc(-n2ncc3cc(C#N)cnc32)ncc1C(=O)N[C@H]1CC[C@H](CCN2CCC(c3ccc([C@@]4(C)CCC(=O)NC4=O)cc3)CC2)CC1 [P-273] |
| 0.004 | 4.1 | C[C@H](C#N)Nc1cc(-n2ncc3cc(C#N)c(N)nc32)ncc1C(=O)N[C@H]1CC[C@H](CCN2CCN(c3ccc([C@@]4(C)CCC(=O)NC4=O)cc3)[C@@H](C)C2)CC1 [P-248] |
